Reference: patent EP2857399A1, “Compounds useful for the treatment of PDE5 inhibitor-poorly responsive erectile dysfunction” (GenKyoTex SA, priority 2013, dated 2015)

Test system: diabetic GK rats
Assay: Erectile response to electrical stimulation of the cavernous nerve (ICP monitoring) in a rat model of type II diabetes mellitus associated erectile dysfunction with impaired sildenafil response
Assay type: in vivo, Goto-Kakizaki (GK) rats
Description: The efficacy of compounds of Formula (I) for restoring or increasing responsiveness to treatment with a PDE5 inhibitor (sildenafil) is assessed in a rat model of type II diabetes mellitus associated erectile dysfunction in Goto-Kakizaki (GK) rats. Those rats show the main features of the metabolic, hormonal and vascular disorders usually described in T2D patients (Portha et al., 2001, Diabetes 50 (Suppl. 1): S89-S93; Portha et al., 1991, Diabetes 40, 486-491).
Adult male Wistar and age-matched Goto-Kakizaki (GK) rats (obtained by repeated inbreeding of non-diabetic Wistar rats selected at the upper limit or normal distribution if glucose tolerance as described in Goto et al., 1975, Proc. Jpn Acad, 51, 80-5 are housed at least 7 days prior to the beginning of the experiments with free access to standard chow and water and maintained on an inversed 12 h dark/light cycle (10:00/22:00).
At 15 weeks of age, treatment period is started; n=24 GK rats (Groups 4 & 5) receive a dose of compound 5 (30 mg/kg) while n=24 GK (Groups 1 and 3) rats and n=12 Wistar (Group 2) rats receive an equivalent volume of vehicle (25% HPβCD) of compound 5 by daily oral gavage for 28 days.
On day 29th after starting treatment administration, the rats (19 weeks of age) undergo an evaluation of their erectile response measured after electrical stimulation (ES) of the cavernous nerve (CN) by monitoring intracavernous pressure (ICP). For this purpose, rats are anesthetized (urethane […]) after a 3-hour fasting period (necessary for plasma glucose dosage), their temperature maintained at 37°C using a homeothermic blanket. The carotid artery was catheterized to record blood pressure (BP) via a pressure transducer (Elcomatic 750, Glasgow, UK). Both jugular veins were also catheterised to allow intravenous injections. CN is surgically exposed at the lateral aspect of the prostate and mounted on a bipolar platinum electrode connected to an electrical stimulator (AMS 2100, Phymep, France).
As a consequence, there are 16 hours between animals receiving their final administration of compound 5 or vehicle and initiation of evaluation of their erectile function. Rats were anesthetized and then received a 1st intravenous injection (iv) 25%HPβCD, the vehicle of compound 5, 60 minutes prior to the evaluation period of treatment effect. All rats also received a 2nd iv injection of either sildenafil (Sequoia research, Pangbourne, UK) 0.3mg/kg (groups 3 & 5) or normal saline, the vehicle of sildenafil, (groups 1, 2, 4) 56 minutes after the first injection.
At T=-15 minutes, the continuous recording of BP and ICP started. […] Two stimulations of the CN at 15Hz, 1 ms for 45 s were performed to elicit an increase of ICP to certify the correct implantation of the catheter and to assess baseline erectile response prior treatment
At T=0 minute, 25% HPβCD was injected intravenously.
At T+4 minutes and T+30 minutes, the CN was stimulated at 10Hz, 1ms for 45s.At T+56 minutes, sildenafil (0.3mg/kg) or normal saline was intravenously injected.
At T+ 60 minutes, and at 3 minutes intervals thereafter, the CN was stimulated at 6V, 1 ms for 45 s by different stimulation frequencies (10 Hz then 0, 2.5, 5, 7.5, 12.5 and 15 Hz) in a randomized manner in order to assess the erectile responses. These different electrical stimulations were repeated twice in view of establishing a frequency-response curve for each animal.
At T+ 120 minutes, the recording ended. […]

CCCc1nn(C)c2c(=O)[nH]c(-c3cc(S(=O)(=O)N4CCN(C)CC4)ccc3OCC)nc12 [sildenafil, reference compound]
erectile responses (AUC45/MAP) compared to healthy Wistar rats (acute sildenafil alone, iv single administration 0.3mg/kg, Figure 1A): significantly lower
erectile responses to ES CN (acute sildenafil alone, iv single administration at 0.3mg/kg): pro-erectile facilitator effects

CN(C)c1cccc(-c2c3c(=O)n(-c4ccccc4Cl)[nH]c3cc(=O)n2C)c1 [compound 5, 2-(2-chlorophenyl)-4-[3-(dimethylamino)phenyl]-5-methyl-1H-pyrazolo[4,3-c] pyridine-3,6(2H,5H)-dione]
AUCtot/MAP following ES CN compared to control healthy Wistar rats (acute sildenafil 0.3 mg/kg combined with chronic compound 5 30mg/kg/day, Figure 1B): not significantly different
AUCtot/MAP (pro-erectile facilitator effects) (chronic compound 5 30mg/kg/day combined with acute sildenafil iv 0.3mg/kg, p≤0.0001 vs. GK rats, 2-way ANOVA with interaction, figure 1B): further increased
AUC45/MAP (pro-erectile facilitator effects) (chronic compound 5 30mg/kg/day combined with acute sildenafil iv 0.3mg/kg, p≤0.0001 vs. GK rats, 2-way ANOVA, Figure 1A): further increased
erectile responses (AUC45/MAP) compared to healthy Wistar rats (chronic compound 5 alone at 30mg/kg/day, Figure 1A): significantly lower
increase in AUCtot/MAP compared to each compound administered alone (combination of chronic compound 5 30mg/kg/day and acute sildenafil 0.3mg/kg, p≤0.0001 vs acute sildenafil, p≤0.05 vs chronic compound 5, Figure 1B): statistically significant
AUCtot/MAP (erectile responses to ES CN) (compound 5 alone, 30mg/kg once daily oral for 4 weeks, compared to GK rats treated with vehicle, p=0.147, figure 1B): no statistical difference
AUC45/MAP (erectile responses to ES CN) (compound 5 alone, 30mg/kg once daily oral for 4 weeks, compared to GK rats treated with vehicle, p≤0.05, figure 1A): statistically greater overall erectile responses
